Measurements reported in patent publication US6124269A, “2-Halo-6-O-substituted ketolide derivatives” (priority 1998, dated 2000).
In brackets after ≈: the same amount, converted by molar mass.

How the values were obtained:
Format in all cases: cell-based
[1] = test system: Streptococcus pneumoniae 5979; assay: In vitro agar dilution MIC, organism code ZZ; settings: unit assumed
Protocol: (§1) Representative compounds of the present invention were assayed in vitro for antibacterial activity as follows: Twelve petri dishes containing successive aqueous dilutions of the test compound mixed with 10 mL of sterilized Brain Heart Infusion (BHI) agar (Difco 0418-01-5) were prepared. Each plate was inoculated with 1:100 (or 1:10 for slow-growing strains, such as Micrococcus and Streptococcus) dilutions of up to 32 different microorganisms, using a Steers replicator block. The inoculated plates were incubated at 35-37° C. for 20 to 24 hours. In addition, a control plate, using BHI agar containing no test compound, was prepared and incubated at the beginning and end of each test.
(§2) An additional plate containing a compound having known susceptibility patterns for the organisms being tested and belonging to the same antibiotic class as the test compound was also prepared and incubated as a further control, as well as to provide test-to-test comparability.
(§3) After incubation, each plate was visually inspected. The minimum inhibitory concentration (MIC) was defined as the lowest concentration of drug yielding no growth, a slight haze, or sparsely isolated colonies on the inoculum spot as compared to the growth control.

[2] = test system: Micrococcus luteus ATCC 9341; assay: In vitro agar dilution MIC, organism code OO; settings: Table 1B, unit assumed
Protocol: as §1, §2, §3

[3] = test system: Staphylococcus aureus A-5278; assay: In vitro agar dilution MIC, organism code CC; settings: Table 1B, unit assumed
Protocol: as §1, §2, §3

[4] = test system: Streptococcus agalactiae CMX 508; assay: In vitro agar dilution MIC, organism code KK; settings: Table 1B, unit assumed
Protocol: as §1, §2, §3

[5] = test system: Streptococcus pneumoniae 5649; assay: In vitro agar dilution MIC, organism code ZZA; settings: unit assumed
Protocol: as §1, §2, §3

[6] = test system: Micrococcus luteus ATCC 4698; assay: In vitro agar dilution MIC, organism code PP; settings: Table 1B, in µg/mL (unit assumed)
Protocol: as §1, §2, §3

[7] = test system: Staphylococcus aureus A5177; assay: In vitro agar dilution MIC, organism code BB; settings: Table 1B, in µg/mL (unit assumed)
Protocol: as §1, §2, §3

[8] = test system: Streptococcus pyogenes EES61; assay: In vitro agar dilution MIC, organism code LL; settings: unit assumed
Protocol: as §1, §2, §3

[9] = test system: Enterococcus faecium ATCC 8043; assay: In vitro agar dilution MIC, organism code II; settings: Table 1B, unit assumed
Protocol: as §1, §2, §3

[10] = test system: Streptococcus pneumoniae ATCC 6303; assay: In vitro agar dilution MIC, organism code XX; settings: unit assumed
Protocol: as §1, §2, §3

[11] = test system: Staphylococcus epidermidis 3519; assay: In vitro agar dilution MIC, organism code HH; settings: Table 1B, in µg/mL (unit assumed)
Protocol: as §1, §2, §3

[12] = test system: Streptococcus pneumoniae GYR 1171; assay: In vitro agar dilution MIC, organism code YY; settings: Table 1B, unit assumed
Protocol: as §1, §2, §3

Candida albicans CCH 442 = assay: In vitro agar dilution MIC, organism code TT; settings: Table 1B, unit assumed
Protocol: as §1, §2, §3

[13] = test system: Streptococcus bovis A-5169; assay: In vitro agar dilution MIC, organism code JJ; settings: Table 1B, unit assumed
Protocol: as §1, §2, §3

[14] = test system: Streptococcus pyogenes PIU 2548; assay: In vitro agar dilution MIC, organism code NN; settings: unit assumed
Protocol: as §1, §2, §3

[15] = test system: Nocardia asteroides ATCC 9970; assay: In vitro agar dilution MIC, organism code VV; settings: Table 1B, in µg/mL (unit assumed)
Protocol: as §1
An additional plate containing a compound having known susceptibility patterns for the organisms being tested and belonging to the same antibiotic class as the test compound was also prepared and incubated as a further control, as well as to provide test-to-test comparability. Erythromycin A was used for this purpose.
as §3

Escherichia coli JUHL = assay: In vitro agar dilution MIC, organism code QQ; settings: Table 1B, in µg/mL (unit assumed)
Protocol: as §1, §2, §3

[16] = test system: Haemophilis influenzae DILL AMP R; assay: In vitro agar dilution MIC, organism code WW; settings: unit assumed
Protocol: as §1, §2, §3

[17] = test system: Staphylococcus aureus 1775; assay: In vitro agar dilution MIC, organism code GG; settings: Table 1B, unit assumed
Protocol: as §1, §2, §3

[18] = test system: Streptococcus pyogenes 930; assay: In vitro agar dilution MIC, organism code MM; settings: unit assumed
Protocol: as §1, §2, §3

[19] = test system: Staphylococcus aureus CMX 553; assay: In vitro agar dilution MIC, organism code FF; settings: Table 1B, unit assumed
Protocol: as §1, §2, §3

[20] = test system: Staphylococcus aureus NCTC10649M; assay: In vitro agar dilution MIC, organism code EE; settings: Table 1B, unit assumed
Protocol: as §1, §2, §3

Escherichia coli SS = assay: In vitro agar dilution MIC, organism code RR; settings: Table 1B, in µg/mL (unit assumed)
Protocol: as §1, §2, §3

Escherichia coli DC-2 = assay: In vitro agar dilution MIC, organism code SS; settings: Table 1B, unit assumed
Protocol: as §1, §2, §3

[21] = test system: Mycobacterium smegmatis ATCC 114; assay: In vitro agar dilution MIC, organism code UU; settings: Table 1B, in µg/mL (unit assumed)
Protocol: as §1, §2, §3

[22] = test system: Staphylococcus aureus ATCC 6538P; assay: In vitro agar dilution MIC, organism code AA; settings: Table 1B, unit assumed
Protocol: as §1, §2, §3

[23] = test system: Staphylococcus aureus CMX 642A; assay: In vitro agar dilution MIC, organism code DD; settings: Table 1B, unit assumed
Protocol: as §1, §2, §3

Structure (SMILES)	MIC ([1]; Table 1B) [µg/mL]	MIC [2] [µg/mL]	MIC [3] [µg/mL]	MIC [4] [µg/mL]	MIC ([5]; Table 1B) [µg/mL]	MIC [6]	MIC [7]	MIC ([8]; Table 1B) [µg/mL]	MIC [9] [µg/mL]	MIC ([10]; Table 1B) [µg/mL]	MIC [11]	MIC [12] [µg/mL]	MIC (Candida albicans CCH 442) [µg/mL]	MIC [13] [µg/mL]	MIC ([14]; Table 1B) [µg/mL]	MIC [15]	MIC (Escherichia coli JUHL)	MIC ([16]; Table 1B) [µg/mL]	MIC [17] [µg/mL]	MIC ([18]; Table 1B) [µg/mL]	other results
C=CCO[C@]1(C)C[C@@H](C)C(=O)[C@H](C)[C@H]2NC(=O)O[C@]2(C)[C@@H](CC)OC(=O)[C@@](C)(F)C(=O)[C@H](C)[C@H]1O[C@@H]1O[C@H](C)C[C@H](N(C)C)[C@H]1O [Example 4]	> 128	0.39 (≈ 0.594 µM)	> 100	0.2 (≈ 0.305 µM)	0.25 (≈ 0.381 µM)	0.78	0.78	0.2 (≈ 0.305 µM)	0.2 (≈ 0.305 µM)	0.06 (≈ 0.0914 µM)	0.78	0.03 (≈ 0.0457 µM)	> 100	0.2 (≈ 0.305 µM)	0.39 (≈ 0.594 µM)	0.39	> 100	8 (≈ 12.2 µM)	> 100	> 100	MIC [19]: 0.78 µg/mL (≈ 1.19 µM); MIC [20]: 0.78 µg/mL (≈ 1.19 µM); MIC (Escherichia coli SS): 0.78; MIC (Escherichia coli DC-2): > 100 µg/mL; MIC [21]: 6.2; MIC [22]: 0.78 µg/mL (≈ 1.19 µM); MIC [23]: 0.78 µg/mL (≈ 1.19 µM)
CC[C@H]1OC(=O)[C@@](C)(F)C(=O)[C@H](C)[C@@H](O[C@@H]2O[C@H](C)C[C@H](N(C)C)[C@H]2O)[C@](C)(OC/C=C/c2cnc3ccccc3c2)C[C@@H](C)C(=O)[C@H](C)[C@H]2NC(=O)O[C@@]21C [Example 5]	1 (≈ 1.28 µM)	0.01 (≈ 0.0128 µM)	> 100	0.01 (≈ 0.0128 µM)	0.25 (≈ 0.319 µM)	0.1	0.05	0.01 (≈ 0.0128 µM)	0.02 (≈ 0.0255 µM)	0.03 (≈ 0.0383 µM)	0.05	0.03 (≈ 0.0383 µM)	12.5 (≈ 15.9 µM)	0.005 (≈ 0.00638 µM)	0.05 (≈ 0.0638 µM)	0.005	25	1 (≈ 1.28 µM)	> 100	0.2 (≈ 0.255 µM)	MIC ([1]; Table 1D): 1 µg/mL (≈ 1.28 µM); MIC ([5]; Table 1D): 0.25 µg/mL (≈ 0.319 µM); MIC ([8]; Table 1D): 0.03 µg/mL (≈ 0.0383 µM); MIC ([10]; Table 1D): 0.03 µg/mL (≈ 0.0383 µM); MIC ([14]; Table 1D): 0.25 µg/mL (≈ 0.319 µM); MIC ([16]; Table 1D): 1 µg/mL (≈ 1.28 µM); MIC ([18]; Table 1D): 0.25 µg/mL (≈ 0.319 µM); MIC [19]: 0.05 µg/mL (≈ 0.0638 µM); MIC [20]: 0.05 µg/mL (≈ 0.0638 µM); MIC (Escherichia coli SS): 0.2; MIC (Escherichia coli DC-2): 25 µg/mL (≈ 31.9 µM); MIC [21]: 0.2; MIC [22]: 0.05 µg/mL (≈ 0.0638 µM); MIC [23]: 0.05 µg/mL (≈ 0.0638 µM)
CC[C@H]1OC(=O)[C@@](C)(F)C(=O)[C@H](C)[C@@H](O[C@@H]2O[C@H](C)C[C@H](N(C)C)[C@H]2O)[C@](C)(OC/C=C/c2cnc3ccc([N+](=O)[O-])cc3c2)C[C@@H](C)C(=O)[C@H](C)[C@H]2NC(=O)O[C@@]21C [Example 6]	1 (≈ 1.21 µM)	0.01 (≈ 0.0121 µM)	100 (≈ 121 µM)	0.02 (≈ 0.0241 µM)	0.125 (≈ 0.151 µM)	0.05	0.05	≤ 0.005	0.05 (≈ 0.0603 µM)	≤ 0.004	0.05	≤ 0.004	100 (≈ 121 µM)	0.01 (≈ 0.0121 µM)	0.05 (≈ 0.0603 µM)	0.02	25	2 (≈ 2.41 µM)	100 (≈ 121 µM)	0.39 (≈ 0.47 µM)	MIC [19]: 0.05 µg/mL (≈ 0.0603 µM); MIC [20]: 0.1 µg/mL (≈ 0.121 µM); MIC (Escherichia coli SS): 0.05; MIC (Escherichia coli DC-2): 25 µg/mL (≈ 30.2 µM); MIC [21]: 0.1; MIC [22]: 0.05 µg/mL (≈ 0.0603 µM); MIC [23]: 0.05 µg/mL (≈ 0.0603 µM)
